Reference: ChEMBL document CHEMBL5143555, “Potentiating the intracellular killing of Staphylococcus aureus by dihydroquinazoline analogues as NorA efflux pump inhibitor” (Bioorg Med Chem, 2022)

Columns and labels:
Staphylococcus aureus [1] = assay: Bactericidal activity against Staphylococcus aureus 1199B assessed as log reduction in bacterial count at 50 ug/mL measured after 8 hrs by time-kill kinetics assay; format: functional; details: dose 50 µg/ml
Staphylococcus aureus [2] = assay: Antibacterial activity against Staphylococcus aureus 1199B measured after 24 hrs by Muller Hinton broth based MTT assay; format: functional

CC[n+]1c(-c2ccccc2)c2cc(N)ccc2c2ccc(N)cc21.[Br-] [HOMIDIUM BROMIDE]
Activity (Staphylococcus aureus [1]): >3 log10CFU/ml | MIC (Staphylococcus aureus [2]): 50 µg/mL
